Source: US20220251625A1, “NOVEL DIAGNOSTIC MARKER FOR PANCREATIC CANCER” (URTESTE S.A., priority 2019, published 2022)
Where “and” joins values, the source holds several entries; their conditions need not be identical. Equal entries are not always repeated. Numbered stars: 1 amine (or outer) side, 2 acyl side, 3 side chain; on linkers, the order of the positions; unused ones are H or OH. Square brackets hold non-standard residues; d marks the D form. Ends that are not written are not given here. Benzoyl(5-NH,2-NO2) = O=C(c1cc(N[*:1])ccc1[N+](=O)[O-])[*:2]; 2Abz = Nc1ccccc1C(=O)O

Experiments:
Type in all cases: biochemical, human
[1] = system: proteolytic enzymes in urine; assay: Hydrolysis of chromogenic peptide substrate in urine samples, absorbance at 405 nm; parameters: rate of hydrolysis of substrate: unit not given here; conditions: for rate of hydrolysis of substrate: triplicate, 37° C., pH 8.0, 405 nm
Experimental: Arabic numbers indicate the number of the selected urine sample. […] The result indicates the absence of proteolytic enzymes characteristic of pancreatic cancer.
Arabic numbers indicate the number of the selected urine sample. A similar result as described above for FIG. 1 is obtained.
The study on the application of new compounds was performed on a group of 10 patients diagnosed with pancreatic cancer. For this purpose, the compound with formula 2: ABZ-Thr-Thr-Ala-Arg-ANB-NH2 or formula 3: ABZ-Thr-Thr-Ala-Arg-pNA was dissolved in dimethyl sulfoxide (at a concentration of 0.5 mg/mL); 50 μL of this solution was mixed with 120 μl buffer (200 mM Tris-HCl, pH 8.0) and 80 μL of urine of a person with pancreatic cancer. The measurement was made in a 96-well plate designed for measuring absorbance, and each sample was analysed in triplicate at 37° C. The duration of the measurement was 60 minutes. During the measurement, the wavelength characteristic of the released chromophore (ANB-NH2 or pNA) was monitored at 405 nm (range 380-430 nm).
As a result of the measurement, the colour of the solution increased over time in all urine samples from patients diagnosed with pancreatic cancer. The observed absorbance increase over time was different for each of the tested samples.

[2] = system: proteolytic enzymes in urine; assay: as above; conditions: urine samples from healthy individuals (15 samples)
[3] = system: proteolytic enzymes in urine; assay: Degree of substrate hydrolysis versus pH of the reaction environment; parameters: degree of substrate hydrolysis: unit not given here; conditions: for degree of substrate hydrolysis: triplicate
Experimental: Tested pH values are indicated on the x-axis. The relationship between proteolytic activity and pH of reaction environment was assessed.

[4] = system: proteolytic enzymes in urine; assay: RP HPLC analysis of substrate hydrolysis in urine of a person diagnosed with pancreatic cancer; conditions: urine from a person diagnosed with pancreatic cancer
Experimental: A: ABZ-Thr-Thr-Ala-Arg-ANB NH2 substrate in 200 mM Tris-HCl buffer, pH 8.0. B: Hydrolysis of ABZ-Thr-Thr-Ala-Arg-ANB NH2 substrate in urine of patients diagnosed with pancreatic cancer.

[5] = urine sample 1, patient diagnosed with pancreatic cancer
[6] = urine sample 3, patient diagnosed with pancreatic cancer
[7] = urine sample 4, patient diagnosed with pancreatic cancer
[8] = urine sample 5, patient diagnosed with pancreatic cancer
[9] = urine sample 6, patient diagnosed with pancreatic cancer
[10] = urine sample 7, patient diagnosed with pancreatic cancer
[11] = urine sample 8, patient diagnosed with pancreatic cancer
[12] = urine sample 9, patient diagnosed with pancreatic cancer
[13] = urine sample 10, patient diagnosed with pancreatic cancer

rate of hydrolysis of substrate [1, 5]	rate of hydrolysis of substrate [1, 6]	rate of hydrolysis of substrate [1, 7]	rate of hydrolysis of substrate [1, 8]	rate of hydrolysis of substrate [1, 9]	rate of hydrolysis of substrate [1, 10]	rate of hydrolysis of substrate [1, 11]	rate of hydrolysis of substrate [1, 12]	rate of hydrolysis of substrate [1, 13]	Substance	cleavage products by RP HPLC [4]	further results
0.128 and 0.152 and 0.2109	0.07457 and 0.07826 and 0.07178	0.03727 and 0.03636 and 0.03044	0.02734 and 0.01944 and 0.02312	0.04416 and 0.04476 and 0.04487	0.02666 and 0.02332 and 0.025	0.02045 and 0.02486 and 0.02345	0.00647 and 0.00797 and 0.00596	0.08668 and 0.1146 and 0.08522	ABZ-Thr-Thr-Ala-Arg-ANB-NH2 ([2Abz]TTAR-{Benzoyl(5-NH,2-NO2)-NH2}) [chromogenic peptide; ABZ is 2-aminobenzoic acid, ANB-NH2 is amide of 5-amino-2-nitrobenzoic acid]	break down into the ABZ-Thr-Thr-Ala-Arg peptide fragment and chromophore	hydrolysis of the substrate / increase of colour (absorbance) over time ([1]; urine of patients diagnosed with pancreatic cancer (samples 1-10)): all samples 1-10 disintegrated; increase in absorbance (hydrolysis of the test compound) [2]: does not lead to an increase in absorbance; relationship between proteolytic activity and pH of reaction environment [3]: maximum activity at alkaline pH; degree of substrate hydrolysis ([3]; pH 3): 0; degree of substrate hydrolysis ([3]; pH 4): 0; degree of substrate hydrolysis ([3]; pH 5): 0; degree of substrate hydrolysis ([3]; pH 6): 0; degree of substrate hydrolysis ([3]; pH 7): 0; degree of substrate hydrolysis ([3]; pH 8): 0.07661 and 0.07534 and 0.09735; degree of substrate hydrolysis ([3]; pH 9): 0
0.22 and 0.189 and 0.2109	0.01632 and 0.01669 and 0.01723	0.01727 and 0.01636 and 0.01044	0.05734 and 0.05944 and 0.06152	0.05416 and 0.05476 and 0.05487	0.02666 and 0.02332 and 0.025	0.02045 and 0.02486 and 0.02345	0.01947 and 0.01797 and 0.01896	0.1167 and 0.1146 and 0.1052	ABZ-Thr-Thr-Ala-Arg-pNA	break down into the ABZ-Thr-Thr-Ala-Arg peptide fragment and chromophore	rate of hydrolysis of substrate ([1]; urine sample 2, patient diagnosed with pancreatic cancer): 0.07457 and 0.07826 and 0.07178
